# Assay results taken from patent US20020061888A1, “Combination therapy for the prophylaxis and treatment of hyperlipidemic conditions and disorders” (priority 2000, published 2002).
# Values joined by “and” are separate entries in the source; they are usually repeats but may differ in a detail not shown here. Equal values may be shown once. Marks after values point to notes of the source that are not given here.
# Assays:
# Male beagle dogs [1] = assay: Body or fecal weights, stool consistency, general animal health of treated beagle dogs; type: in vivo; details: any of the groups
# Method: (§1) Male beagle dogs (9-10 kg) obtained from Marshall farms were fed a normal chow diet once a day for a two hour interval and given water ad libitum. Prior to initiating treatment, the dogs were weighed and blood samples were drawn from the cephalic vein of each dog following an overnight fast to evaluate pretreatment serum total cholesterol levels at the start of the study. […] All doses were administered in gelatin capsules per os to each dog between 9:00-9:30 a.m. prior to feeding. All animals were fed between 9:30-10:00 a.m. and were allowed two hours to eat, at which time any remaining food was removed. […] Animals were dosed daily for three weeks and blood samples were taken at the end of each week after an overnight fast for comparison with pretreatment serum total cholesterol levels. Three consecutive 24 hour fecal samples were collected for each group during the last 72 hours of each week and used to measure the concentration of fecal biles acids excreted during that time period.
# Following this initial four week dose-ranging study, dogs from the two groups receiving 10 mg/kg/day pravastatin (a.m. and p.m. dosing groups) were randomized into two new treatment groups based on serum total cholesterol levels to initiate the combination treatment study. […] Dosing continued in this manner for an additional four weeks (Weeks 5-8) with blood and 48-hour fecal samples collected at the end of each week for serum lipid measurements and fecal bile acid determinations, respectively. […] At the end of this three-week period, pravastatin dosing and all empty capsule dosing were discontinued and blood samples were collected weekly for a final three weeks (weeks 12-14) to monitor the return of serum total cholesterol levels back to baseline.
# Male beagle dogs (9-10 kg) obtained from Marshall farms were fed once a day for two hours and given water ad libitum.
# Male beagle dogs [2] = assay: Serum total cholesterol in beagle dogs (serum lipid measurements); type: in vivo; details: for SERUM TOTAL CHOLESTEROL / TOTAL SERUM CHOLESTEROL: n = 6; for decrease in serum total cholesterol concentration: compared to vehicle
# Method: as §1
# Blood was collected from the cephalic vein of each dog into serum separator tubes. The blood was centrifuged at 900×g for 20 minutes at room temperature and the serum decanted. All analyses were performed on a Cobas Mira Clinical Analyzer System (Roche Diagnostic Systems, Branchburg, N.J.) using Roche Diagnostic reagents for enzymatic determinations of serum cholesterol. Commercial calibrator and quality control materials were analyzed with each run to verify assay accuracy and precision. A two-tailed, paired Students t-test was used to determine the statistical significance of changes in serum total cholesterol in treated dogs compared to pretreatment values. A one-way analysis of variance (“ANOVA”) was used to compare each pair of treatment groups to determine the statistical significance of changes in serum total cholesterol.
# Beagle dogs also were administered pravastatin to evaluate the monotherapeutic effect of pravastatin on serum total cholesterol.
# Male beagle dogs (9-10 kg) obtained from Marshall farms were fed once a day for two hours and given water ad libitum. Prior to initiating treatment, blood samples were drawn from the cephalic vein of each dog to evaluate pretreatment total serum cholesterol levels at the start of the study.
# For the dose ranging study, the dogs were assigned to one of five groups based on mean body weights and serum total cholesterol levels. Each group received one of the following dosages: (1) vehicle (empty capsule, afternoon dosing), (2) 3.0 mg/kg/day pravastatin (afternoon dosing), (3) 10 mg/kg/day pravastatin (afternoon dosing), (4) 30 mg/kg/day pravastatin (afternoon dosing), and (5) 10 mg/kg/day pravastatin (morning dosing). One capsule containing pravastatin was administered per os to each dog between 9:00-9:30 a.m. prior to feeding for the 10 mg/kg/day morning dosing group and between 2:30-3:00 p.m. for the afternoon dosing groups. All animals were fed between 9:30-10:00 a.m. and were allowed two hours to eat, at which time any remaining food was removed. […] Animals were dosed daily for four weeks and blood samples were taken at the end of each week after an overnight fast for comparison with pretreatment serum total cholesterol levels.
# Following this initial four week dose-ranging study, dogs from the two groups receiving 10 mg/kg/day pravastatin (a.m. and p.m. dosing groups) were randomized into two new treatment groups based on serum total cholesterol levels to initiate the combination treatment study. […] Dosing continued in this manner for an additional four weeks (Weeks 5-8) with blood and 48-hour fecal samples collected at the end of each week for serum lipid measurements and fecal bile acid determinations, respectively.
compound,measurement,setting,value
CCCCC1(CC)CS(=O)(=O)c2ccc(N(C)C)cc2[C@@H](c2cccc(OCc3ccc(C[N+]45CCN(CC4)CC5)cc3)c2)[C@H]1O.[Cl-] (some centres unmarked) [Compound A-5],"changes in body or fecal weights, stool consistency or general animal health","Male beagle dogs [1]; Example 1, compound A-5 0.22-6.0 mg/kg/day for three weeks",no significant changes
same,"changes in body or fecal weights, stool consistency or general animal health","Male beagle dogs [1]; Example 3 study (pravastatin 3-30 mg/kg/day, compound A-5 4.0 mg/kg/day, combination)",no significant changes
same,% change in serum total cholesterol compared to the pretreatment value of each group,"Male beagle dogs [2]; compound A-5 0.22 mg/kg/day per os, Week 1",(−9) %
same,SERUM TOTAL CHOLESTEROL,"Male beagle dogs [2]; compound A-5 0.22 mg/kg/day per os, Week 1, mean ± SEM",140 ± 10^3 mg/dL
same,% change in serum total cholesterol compared to the pretreatment value of each group,"Male beagle dogs [2]; compound A-5 0.22 mg/kg/day per os, Week 2",(−7) %
same,SERUM TOTAL CHOLESTEROL,"Male beagle dogs [2]; compound A-5 0.22 mg/kg/day per os, Week 2, mean ± SEM",143 ± 11 mg/dL
same,% change in serum total cholesterol compared to the pretreatment value of each group,"Male beagle dogs [2]; compound A-5 0.22 mg/kg/day per os, Week 3",(−10) %
same,SERUM TOTAL CHOLESTEROL,"Male beagle dogs [2]; compound A-5 0.22 mg/kg/day per os, Week 3, mean ± SEM",138 ± 11^3 mg/dL
same,decrease in serum total cholesterol concentration,"Male beagle dogs [2]; compound A-5 0.22 mg/kg/day, one week of treatment",9%
same,decrease in serum total cholesterol concentration,"Male beagle dogs [2]; compound A-5 0.22 mg/kg/day, three weeks of treatment",10%
same,% change in serum total cholesterol compared to the pretreatment value of each group,"Male beagle dogs [2]; compound A-5 0.66 mg/kg/day per os, Week 1",(−7) %
same,SERUM TOTAL CHOLESTEROL,"Male beagle dogs [2]; compound A-5 0.66 mg/kg/day per os, Week 1, mean ± SEM",145 ± 9 mg/dL
same,% change in serum total cholesterol compared to the pretreatment value of each group,"Male beagle dogs [2]; compound A-5 0.66 mg/kg/day per os, Week 2",(−4) %
same,SERUM TOTAL CHOLESTEROL,"Male beagle dogs [2]; compound A-5 0.66 mg/kg/day per os, Week 2, mean ± SEM",149 ± 8 mg/dL
same,% change in serum total cholesterol compared to the pretreatment value of each group,"Male beagle dogs [2]; compound A-5 0.66 mg/kg/day per os, Week 3",(−6) %
same,SERUM TOTAL CHOLESTEROL,"Male beagle dogs [2]; compound A-5 0.66 mg/kg/day per os, Week 3, mean ± SEM",146 ± 8 mg/dL
same,decrease in serum total cholesterol concentration,"Male beagle dogs [2]; compound A-5 0.66 mg/kg/day, one week of treatment",7%
same,decrease in serum total cholesterol concentration,"Male beagle dogs [2]; compound A-5 0.66 mg/kg/day, three weeks of treatment",6%
same,% change in serum total cholesterol compared to the pretreatment value of each group,"Male beagle dogs [2]; compound A-5 2.0 mg/kg/day per os, Week 1",(−12) %
same,SERUM TOTAL CHOLESTEROL,"Male beagle dogs [2]; compound A-5 2.0 mg/kg/day per os, Week 1, mean ± SEM",137 ± 10^3 mg/dL
same,% change in serum total cholesterol compared to the pretreatment value of each group,"Male beagle dogs [2]; compound A-5 2.0 mg/kg/day per os, Week 2",(−15) %
same,SERUM TOTAL CHOLESTEROL,"Male beagle dogs [2]; compound A-5 2.0 mg/kg/day per os, Week 2, mean ± SEM",133 ± 11^3 mg/dL
same,% change in serum total cholesterol compared to the pretreatment value of each group,"Male beagle dogs [2]; compound A-5 2.0 mg/kg/day per os, Week 3",(−13) %
same,SERUM TOTAL CHOLESTEROL,"Male beagle dogs [2]; compound A-5 2.0 mg/kg/day per os, Week 3, mean ± SEM",136 ± 10^3 mg/dL
same,decrease in serum total cholesterol concentration,"Male beagle dogs [2]; compound A-5 2.0 mg/kg/day, one week of treatment",12%
same,decrease in serum total cholesterol concentration,"Male beagle dogs [2]; compound A-5 2.0 mg/kg/day, three weeks of treatment",13%
same,decrease in serum total cholesterol compared to the initial value at Week 0,"Male beagle dogs [2]; compound A-5 4 mg/kg/day for four weeks (beginning after Week 4), Week 8",23%
same,% change in serum total cholesterol compared to the pretreatment value of each group,"Male beagle dogs [2]; compound A-5 6.0 mg/kg/day per os, Week 1",(−19) %
same,SERUM TOTAL CHOLESTEROL,"Male beagle dogs [2]; compound A-5 6.0 mg/kg/day per os, Week 1, mean ± SEM",128 ± 11^3 mg/dL
same,% change in serum total cholesterol compared to the pretreatment value of each group,"Male beagle dogs [2]; compound A-5 6.0 mg/kg/day per os, Week 2",(−22) %
same,SERUM TOTAL CHOLESTEROL,"Male beagle dogs [2]; compound A-5 6.0 mg/kg/day per os, Week 2, mean ± SEM",124 ± 11^3 mg/dL
same,% change in serum total cholesterol compared to the pretreatment value of each group,"Male beagle dogs [2]; compound A-5 6.0 mg/kg/day per os, Week 3",(−24) %
same,SERUM TOTAL CHOLESTEROL,"Male beagle dogs [2]; compound A-5 6.0 mg/kg/day per os, Week 3, mean ± SEM",120 ± 11^3 mg/dL
same,decrease in serum total cholesterol concentration,"Male beagle dogs [2]; compound A-5 6.0 mg/kg/day, one week of treatment",19%
same,decrease in serum total cholesterol concentration,"Male beagle dogs [2]; compound A-5 6.0 mg/kg/day, three weeks of treatment",24%
same,% change from Week 0 in total serum cholesterol,"Male beagle dogs [2]; compound A-5 monotherapy 4.0 mg/kg/day, dosed Weeks 5-8, Week 5",(−12) %
same,TOTAL SERUM CHOLESTEROL,"Male beagle dogs [2]; compound A-5 monotherapy 4.0 mg/kg/day, dosed Weeks 5-8, Week 5, mean ± SEM",123 ± 9 mg/dL
same,% change from Week 0 in total serum cholesterol,"Male beagle dogs [2]; compound A-5 monotherapy 4.0 mg/kg/day, dosed Weeks 5-8, Week 6",(−18) %
same,TOTAL SERUM CHOLESTEROL,"Male beagle dogs [2]; compound A-5 monotherapy 4.0 mg/kg/day, dosed Weeks 5-8, Week 6, mean ± SEM",115 ± 8 [a] mg/dL
same,% change from Week 0 in total serum cholesterol,"Male beagle dogs [2]; compound A-5 monotherapy 4.0 mg/kg/day, dosed Weeks 5-8, Week 7",(−18) %
same,TOTAL SERUM CHOLESTEROL,"Male beagle dogs [2]; compound A-5 monotherapy 4.0 mg/kg/day, dosed Weeks 5-8, Week 7, mean ± SEM",114 ± 6 [a] mg/dL
same,% change from Week 0 in total serum cholesterol,"Male beagle dogs [2]; compound A-5 monotherapy 4.0 mg/kg/day, dosed Weeks 5-8, Week 8",(−23) %
same,TOTAL SERUM CHOLESTEROL,"Male beagle dogs [2]; compound A-5 monotherapy 4.0 mg/kg/day, dosed Weeks 5-8, Week 8, mean ± SEM",107 ±7 mg/dL and 107 ± 7 [a] mg/dL
same,% change from Week 0 in total serum cholesterol,"Male beagle dogs [2]; compound A-5 monotherapy group, dosing terminated after Week 8, Week 9",(−5) %
same,TOTAL SERUM CHOLESTEROL,"Male beagle dogs [2]; compound A-5 monotherapy group, dosing terminated after Week 8, Week 9, mean ± SEM",132 ± 7 mg/dL
same,% change from Week 0 in total serum cholesterol,"Male beagle dogs [2]; compound A-5 monotherapy group, dosing terminated after Week 8, Week 10",(−4) %
same,TOTAL SERUM CHOLESTEROL,"Male beagle dogs [2]; compound A-5 monotherapy group, dosing terminated after Week 8, Week 10, mean ± SEM",133 ± 10 mg/dL
same,% change from Week 0 in total serum cholesterol,"Male beagle dogs [2]; compound A-5 monotherapy group, dosing terminated after Week 8, Week 11",(−5) %
same,TOTAL SERUM CHOLESTEROL,"Male beagle dogs [2]; compound A-5 monotherapy group, dosing terminated after Week 8, Week 11, mean ± SEM",132 ± 9 mg/dL
same,% change from Week 0 in total serum cholesterol,"Male beagle dogs [2]; compound A-5 monotherapy group, dosing terminated after Week 8, Week 12",(−2) %
same,TOTAL SERUM CHOLESTEROL,"Male beagle dogs [2]; compound A-5 monotherapy group, dosing terminated after Week 8, Week 12, mean ± SEM",136 ± 9 mg/dL
same,% change from Week 0 in total serum cholesterol,"Male beagle dogs [2]; compound A-5 monotherapy group, dosing terminated after Week 8, Week 13",(−14) %
same,TOTAL SERUM CHOLESTEROL,"Male beagle dogs [2]; compound A-5 monotherapy group, dosing terminated after Week 8, Week 13, mean ± SEM",137 ± 9 mg/dL
